Test results as given in ChEMBL document CHEMBL5608141, “Identification of compartment-specific drug sensitivities in CRC organoid-stroma co-cultures” (2024).

Columns and labels:
Assay type in all cases: functional, Homo sapiens
Set-up in all cases: dose or concentration left out as unconfirmed
Colon cancer organoid [1] = test: Identification of compartment-specific drug sensitivities in O06 CRC organoid-stroma F06 CAF co-cultures. Organoid is transduced with Lucferase2-P2A-EGFP lentivirus, fibroblast with Renilla-dsRed lentivirus. Dual-Glo Luciferase assay is used to report viability data.
Colon cancer organoid [2] = test: Identification of compartment-specific drug sensitivities in O14 CRC organoid-stroma F14 CAF co-cultures. Organoid is transduced with Lucferase2-P2A-EGFP lentivirus, fibroblast with Renilla-dsRed lentivirus. Dual-Glo Luciferase assay is used to report viability data.
Colon cancer organoid [3] = test: Identification of compartment-specific drug sensitivities in O20 CRC organoid-stroma F20 CAF co-cultures. Organoid is transduced with Lucferase2-P2A-EGFP lentivirus, fibroblast with Renilla-dsRed lentivirus. Dual-Glo Luciferase assay is used to report viability data.
[4] = Transduced with Lucferase2-P2A-EGFP lentivirus
[5] = Transduced with Renilla-dsRed lentivirus

| Structure (SMILES) | Cell Viability (Colon cancer organoid [1]; [4]) | Cell Viability (Colon cancer organoid [1]; [5]) | Cell Viability (Colon cancer organoid [2]; [4]) | Cell Viability (Colon cancer organoid [2]; [5]) | Cell Viability (Colon cancer organoid [3]; [4]) | Cell Viability (Colon cancer organoid [3]; [5]) |
| --- | --- | --- | --- | --- | --- | --- |
| CC(C)Oc1ccc(-c2c[nH]cc2CN(C)CCO)cc1 | 112.392% | 114.959% | 129.064% | 102.719% | 114.429% | 121.653% |
| Cc1nc(N2CC[C@H](O)C2)ncc1-c1cc(C(F)(F)F)cc2[nH]ncc12 | 124.32% | 144.84% | 76.9456% | 116.548% | 47.2711% | 153.575% |
| CC(=O)Nc1nc(CN2CCC[C@H](Cc3cc(C)nc(C)c3)C2)cs1 [JNJ-73924149] | 82.0789% | 131.954% | 104.416% | 83.6177% | 90.3874% | 105.251% |
| COc1ccc(CCc2nc3cc(-c4c(C)noc4C)ccc3n2C[C@H](C)N2CCOCC2)cc1Cl | 78.634% | 97.126% | 147.618% | 121.055% | 96.1019% | 133.846% |
| CN1CCN(Cc2cc(NC(=O)c3ccc4c(c3)CN(c3ccccc3)CC4)cc(C(F)(F)F)c2)CC1 | 105.854% | 147.303% | 122.837% | 90.754% | 90.0307% | 84.0381% |
| O=C1NC(c2ccccn2)Sc2ccccc21 (stereo unspecified) [BTZO-4] | 80.8326% | 70.0316% | 106.577% | 104.892% | 109.35% | 85.8309% |
| Cn1cc(Cl)c2c(Oc3c(F)cc(Nc4cc(Cl)nc(N)n4)cc3F)ccnc21 [BAY-4900] | 121.536% | 149.241% | 86.5863% | 82.0192% | 91.1614% | 109.2% |
| Cc1noc([C@H]2C[C@@H](c3ccc(C(F)(F)F)cc3)CN(C(=O)N3CCS(=O)(=O)C3)C2)n1 [BAY-448] | 64.3289% | 114.596% | 114.601% | 94.3368% | 115.252% | 84.5218% |
| COc1cc(Nc2ccnc3ccc(Br)cc23)cc(OC)c1OC | 11.1317% | 122.349% | 56.2839% | 83.5621% | 3.207% | 235.19% |
| COCCN1CCC(c2cc(CN(C)C(=O)c3cccc(Oc4ccccc4)c3)ccn2)CC1 | 91.2389% | 131.922% | 131.353% | 104.266% | 94.6976% | 115.605% |
| Cc1cc2c(-c3ccco3)cnc(N[C@@H]3CCN(C)C[C@H]3C(=O)NC3CCCCC3)c2[nH]c1=O [GSK789] | 76.5976% | 134.369% | 52.4382% | 127.289% | 34.1492% | 125.83% |
| O=C(Nc1nc2cccc(-c3ccc(CN4CCS(=O)(=O)CC4)cc3)n2n1)C1CC1 [FILGOTINIB] | 100.525% | 92.8016% | 113.804% | 94.0881% | 113.419% | 86.0918% |
| Cc1ccc(-c2ccc3c(ccc4sc5c(c43)NC[C@@H](C)NC5=O)n2)cn1 | 100.355% | 85.371% | 77.4963% | 56.184% | 154.003% | 70.7863% |
| C[C@@H](c1cccc(CN)c1)n1cc(Cl)cc(C(N)=O)c1=N.Cl | 104.535% | 114.984% | 112.906% | 94.626% | 85.1763% | 93.567% |
| COc1cc(C(=O)O)ncc1C#Cc1ccccc1NS(=O)(=O)c1cccc2c(N(C)C)ccnc12 [MSC-0516] | 46.2412% | 64.6541% | 102.238% | 113.463% | 90.203% | 109.372% |
| Cc1c(NC(=O)COc2ccc(Cl)cc2C(=O)c2cc(F)cc(C(F)(F)F)c2)ccc(C(=O)O)c1F [BI 2540] | 104.073% | 125.125% | 85.0828% | 72.3222% | 66.158% | 145.555% |
